Measurements from ChEMBL document CHEMBL5725614, “Histone demethylase inhibitors” (2018).

Assay: FBXL11 Assay: The ability of test compounds to inhibit the activity of FBXL11 was determined in 384-well plate format under the following reaction conditions: 0.15 nM FBXL11, 30 nM H3K36me2-biotin labeled peptide (Anaspec cat #64442), 0.2 μM alpha-ketoglutaric acid in assay buffer of 50 mM HEPES, pH7.3, 0.005% Brij35, 0.5 mM TCEP, 0.2 mg/ml BSA, 50 μM sodium L-ascorbate, 5 μM ammonium iron(II) sulfate. Reaction product is determined quantitatively by AlphaScreen detection after the addition of detection reagents anti-H3K36me1 antibody, AlphaScreen® Streptavidin-coated Donor beads, and AlphaScreen® Protein A Acceptor beads in 50 mM HEPES, pH7.3, 10 mM NaCl, 0.005% Brij35, 5 mM EDTA, 2 mg/ml BSA to final 10 μg/ml beads.The assay reaction was initiated by the following: 3 μl of the mixture of 90 nM H3K36me2-biotin labeled peptide and 0.6 μM alpha-ketoglutaric acid with 3 μl of 11-point serial diluted inhibitor in 3% DMSO are added to each well of 384 well Proxiplate (Perkin Elmer), followed by the addition of 3 μl of 0.45 nM FBXL11 to initiate the reaction. The reaction mixture is incubated at room temperature for 1 hour, and terminated by the addition of 3 μl of appropriate dilution of anti H3K36me1 antibody in 50 mM HEPES, pH7.3, 10 mM NaCl, 0.005% Brij35, 5 mM EDTA, 2 mg/ml BSA. Plates will then incubated at room temperature for 40 minutes, followed by addition of 3 ul of 50 μg/ml AlphaScreen® Streptavidin-coated Donor beads and AlphaScreen® Protein A Acceptor beads in 50 mM HEPES, pH7.3, 10 mM NaCl, 0.005% Brij35, 5 mM EDTA, 2 mg/ml BSA. Plates will then be read by EnVision Multilabel Reader in AlphaScreen mode after minimum 2 hour incubation at room temperature. The AlphaScreen signal for each well is used to determine inhibition constant (IC50).

IC50, in the range around 550 nM:
CCOc1cc(-c2c(-c3cc(-c4c[nH]nn4)ccn3)ncn2C)ccc1F
Clc1cccc(-n2cnc(-c3cc4[nH]nnc4cn3)c2)c1
Clc1ccccc1Cn1cnc(-c2cc(-c3c[nH]nn3)ccn2)c1

Assay: PHF8 Assay: The ability of test compounds to inhibit the activity of PHF8 was determined in 384-well plate format under the following reaction conditions: 3 nM PHF8, 200 nM H3K9me1-biotin labeled peptide (Anaspec cat #64358), 0.5 μM alpha-ketoglutaric acid in assay buffer of 50 mM HEPES, pH7.3, 0.005% Brij35, 0.5 mM TCEP, 0.2 mg/ml BSA, 50 μM sodium L-ascorbate, and 5 μM ammonium iron(II) sulfate. Reaction product was determined quantitatively by TR-FRET after the addition of detection reagent Phycolink Streptavidin-allophycocyanin (Prozyme) and Europium-anti-unmodified-histone H3 lysine 9/lysine27 (H3K9/K27) antibody (PerkinElmer) in the presence of 5 mM EDTA in LANCE detection buffer (PerkinElmer) at a final concentration of 25 nM and 0.5 nM, respectively.The assay reaction was initiated by the following: 2 μl of the mixture of 600 nM H3K9me1-biotin labeled peptide and 1.5 μM alpha-ketoglutaric acid with 2 μl of 11-point serial diluted inhibitor in 3% DMSO were added to each well of the plate, followed by the addition of 2 μl of 9 nM PHF8 to initiate the reaction. The reaction mixture was incubated at room temperature for 15 minutes, and terminated by the addition of 6 μl of 5 mM EDTA in LANCE detection buffer containing 50 nM Phycolink Streptavidin-allophycocyanin and 1 nM Europium-anti-unmodified H3K9/K27 antibody. Plates were read by EnVision Multilabel Reader in TR-FRET mode (excitation at 320 nm, emission at 615 nm and 665 nm) after 1 hour incubation at room temperature. A ratio was calculated (665/615) for each well and fitted to determine inhibition constant (IC50).

IC50, in the range around 550 nM:
c1ccc(OCC2CC2)c(CCn2cnc(-c3cc(-c4c[nH]nn4)ccn3)c2)c1
FC(F)(F)c1ccccc1CCn1cnc(-c2cc(-c3c[nH]nn3)ccn2)c1
N#Cc1[nH]nnc1-c1ccnc(-c2cn(CCc3cccc4ccccc34)cn2)c1
FC(F)(F)c1cccc(Cn2cnc(-c3cc(-c4c[nH]nn4)ccn3)c2)c1Cl
Cc1cccc(Cn2cnc(-c3cc(-c4c[nH]nn4)ccn3)c2)c1F
Cn1cnc(-c2cc(-c3c[nH]nn3)ccn2)c1-c1ccc(F)cc1
FC(F)(F)COc1ccccc1CCn1cnc(-c2cc(-c3c[nH]nn3)ccn2)c1
FC(F)(F)Oc1ccccc1CCn1cnc(-c2cc(-c3c[nH]nn3)ccn2)c1
N#Cc1[nH]nnc1-c1ccnc(-c2cn(CC3CCCc4ccccc43)cn2)c1 (stereo not drawn)
Fc1[nH]nnc1-c1ccnc(-c2cn(CCc3cccc4ccccc34)cn2)c1
CCOc1ccccc1CCn1cnc(-c2cc(-c3c[nH]nn3)ccn2)c1
COc1cc(-c2c(-c3cc(-c4c[nH]nn4)ccn3)ncn2C)ccc1F
Clc1ccccc1Cn1cnc(-c2cc(-c3c[nH]nn3)ccn2)c1
Fc1[nH]nnc1-c1ccnc(-c2cn(Cc3cccc(Cl)c3Cl)cn2)c1
COc1cccc(Cn2cnc(-c3cc(-c4c[nH]nn4)ccn3)c2)c1F
CC(C)(Cn1cnc(-c2cc(-c3c[nH]nn3)ccn2)c1)c1ccccc1Cl
Clc1ccccc1Cn1cnc(-c2cc(-c3cn[nH]n3)ccn2)c1Br
Clc1cccc(Cn2cnc(-c3cc(-c4c[nH]nn4)ccn3)c2)c1Cl
CC(c1ccccc1)n1cnc(-c2cc(-c3c[nH]nn3)ccn2)c1 (stereo not drawn)
c1ccc2c(CCn3cnc(-c4cc(-c5c[nH]nn5)ccn4)c3)cccc2c1
c1ccc2c(c1)CCCC2Cn1cnc(-c2cc(-c3c[nH]nn3)ccn2)c1 (stereo not drawn)
COc1ccccc1CCn1cnc(-c2cc(-c3c[nH]nn3)ccn2)c1
c1ccc(Cn2cnc(-c3cc4[nH]nnc4cn3)c2)cc1
Clc1cccc(Cn2cnc(-c3cc(-c4nn[nH]c4I)ccn3)c2)c1Cl

IC50, in the range around 5500 nM:
Clc1ccc(Cn2cnc(-c3cc4[nH]nnc4cn3)c2)cc1Cl
Clc1ccccc1-n1cnc(-c2cc3[nH]nnc3cn2)c1
CCOc1cc(-c2c(-c3cc(-c4c[nH]nn4)ccn3)ncn2C)ccc1F
c1ccc(COc2ccccc2CCn2cnc(-c3cc(-c4c[nH]nn4)ccn3)c2)cc1
Clc1cccc(-n2cnc(-c3cc4[nH]nnc4cn3)c2)c1
Cn1cnc(-c2cc3[nH]nnc3cn2)c1-c1ccc(F)cc1
c1nc(-c2cn(CC3CC3)cn2)cc2[nH]nnc12
N#Cc1[nH]nnc1-c1ccnc(-c2cn(Cc3cccc(Cl)c3Cl)cn2)c1
Clc1ccc(Cn2cnc(-c3cc4[nH]nnc4cn3)c2)cc1
CC(Cc1ccccc1)n1cnc(-c2cc(-c3c[nH]nn3)ccn2)c1 (stereo not drawn)
N#Cc1[nH]nnc1-c1ccnc(-c2cn(Cc3ccccc3Cl)cn2)c1
Clc1ccccc1Cn1cnc(-c2cc3[nH]nnc3cn2)c1
Fc1c(Cn2cnc(-c3cc(-c4c[nH]nn4)ccn3)c2)cccc1OC(F)(F)F
Clc1cccc(Cn2cnc(-c3cc4[nH]nnc4cn3)c2)c1
Clc1[nH]nnc1-c1ccnc(-c2cn(CCc3cccc4ccccc34)cn2)c1
c1ccc(Oc2ccccc2CCn2cnc(-c3cc(-c4c[nH]nn4)ccn3)c2)cc1
c1ccc(-c2ccccc2CCn2cnc(-c3cc(-c4c[nH]nn4)ccn3)c2)cc1
Cn1cnc(-c2cc(-c3c[nH]nn3)ccn2)c1-c1ccc(F)cc1OCC1CC1
Clc1ccc(-n2cnc(-c3cc4[nH]nnc4cn3)c2)cc1
Clc1cc(Cl)cc(-n2cnc(-c3cc4[nH]nnc4cn3)c2)c1
Cn1cnc(-c2cc(-c3nn[nH]c3F)ccn2)c1-c1ccc(F)cc1OCC1CC1
